Two compounds from patent US20230233586A1, “COMPOUNDS AND METHODS FOR TREATING FUNGAL INFECTIONS” (Amplyx Pharmaceuticals, Inc., priority 2020, published 2023) can be followed below.

Series [1] has as its target fungal glycosylphosphatidylinositol (GPI)-anchored wall transfer protein 1 (GWT1) enzyme (Saccharomyces cerevisiae, UniProt P47026). Put plainly: Inhibition of fungal GWT1 enzyme. In kind it is biochemical. An excerpt: (§1) Compound 1A inhibits the fungal glycosylphosphatidylinositol (GPI)-anchored wall transfer protein 1 (GWT1) enzyme, a highly conserved inositol acylase that catalyzes an early step in the GPI-anchored biosynthesis pathway. This inhibition has pleiotropic effects on the fungal cell due to inhibition of cell wall mannoprotein localization, which comprises cell wall integrity, biofilm formation, germ tube formation, and fungal growth.

For series [2], the target named is T1, phosphatidylinositol glycan anchor biosynthesis class W (PIGW) protein (Homo sapiens, UniProt Q7Z7B1).
T1 sequence (Q7Z7B1 1-504): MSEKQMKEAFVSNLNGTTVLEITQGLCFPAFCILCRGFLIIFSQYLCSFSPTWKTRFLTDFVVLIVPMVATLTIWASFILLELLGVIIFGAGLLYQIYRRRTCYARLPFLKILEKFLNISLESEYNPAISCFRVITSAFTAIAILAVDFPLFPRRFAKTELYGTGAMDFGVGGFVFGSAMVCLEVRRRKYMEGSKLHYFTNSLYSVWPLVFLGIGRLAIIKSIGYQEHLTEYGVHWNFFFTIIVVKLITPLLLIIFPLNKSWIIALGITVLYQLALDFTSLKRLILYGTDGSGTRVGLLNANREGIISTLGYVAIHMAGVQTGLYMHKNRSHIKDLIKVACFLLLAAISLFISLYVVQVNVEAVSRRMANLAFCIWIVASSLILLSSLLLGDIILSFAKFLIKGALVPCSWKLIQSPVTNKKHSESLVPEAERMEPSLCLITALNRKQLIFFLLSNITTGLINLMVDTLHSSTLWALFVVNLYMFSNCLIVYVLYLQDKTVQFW
Put plainly: Inhibition of PIGW, closest mammalian ortholog of GWT1. Format: biochemical. Particulars: closest mammalian ortholog of fungal GWT1.
From the text: as §1

Series [3] has as its system Candida spp., Cryptococcus spp., Aspergillus spp., Scedosporium spp., Fusarium spp., and some Mucorales fungi. Put plainly: In vitro antifungal activity. In kind it is cell-based. Particulars: including azole- and echinocandin-resistant strains.
The test system of series [4] is clinical isolates of rare mold infections and rare yeast infections. Nature of the series: Antifungal activity against clinical isolates of rare mold and rare yeast infections. Conditions: broad range of clinical isolates of rare mold and rare yeast infections. In kind it is cell-based. An excerpt:
These rare mold and rare yeast species generally pose no threat to healthy subjects, but can lead to invasive mold infections in immunocompromised individuals.

In series [5] the test system is Aspergillus fumigatus, Scedosporium prolificans, and Fusarium solani. Nature of the series: 5-fluorouracil immunosuppressed mice with IMIs. Format: in vivo.
Series [6] concerns A. fumigatus, S. apiospermum, F. solani, and Rhizopus spp. Put plainly: Cyclophosphamide and cortisone acetate immunosuppressed mice with IMIs. Format: in vivo.
Series [7] in a line: Phase 1 studies in healthy volunteers, safety and tolerability. In kind it is in vivo, human. The text has this:
In Phase 1 clinical studies of compound 1, the safety, tolerability, and PK of single and multiple ascending doses administered intravenously (IV) and orally (PO) have been studied. To date, a total of 197 healthy volunteers and 21 patients with acute myeloid leukemia (AML) have received compound 1 across 5 Phase 1 studies. The duration of the multiple-dose regimens in these studies was 7, 14, and 42 days (6 weeks).
The majority of the TEAEs were mild, transitory, and resolved without intervention. […] This IV dose regimen is identical to the IV dose regimen that will be used in this study. […] This PO-dose regimen is higher than the 700 mg PO dose that will be used in this study.

In series [8] the test system is Candida spp. Put plainly: Open-label study in non-neutropenic patients with candidemia. In kind it is in vivo, human. On the procedure: Suspicion of antifungal-resistant candidemia is sufficient and subsequent documented resistance is not required for enrollment. The Study Drug Treatment Period will be up to a maximum of 14 days (inclusive of the loading dose [Study Day 1]). […] There will be a Follow-up Period of 4 weeks (+4 days) after EOT. The total duration of participation in the study is up to approximately 7.5 weeks (inclusive of the Screening Period [≤96 hours prior to Baseline]).
Patients with a yeast identified in a blood culture or a positive rapid diagnostic method are eligible to be consented and screened for the study. Patients must have at least 1 positive blood test for Candida spp. (or yeast suspected to be Candida) for a diagnosis of candidemia to be considered for enrollment into the study. Patients with a positive blood culture showing yeast suspected to be Candida must have identification of Candida spp. from positive blood culture confirmed prior to dosing. Screening and Baseline procedures and the start of Compound 1 study drug will be initiated within 96 hours from the time that the SOC blood sample for the Candida spp. positive culture or rapid diagnostic test was drawn. Patients with 2 days (>48 hours) equivalent of prior systemic antifungal treatment at approved doses to treat the current episode of candidemia within 96 hours before first dose will be excluded.
On Study Day 1 (or over the first 24 hours if started in the evening), a 1000 mg Compound 1 loading dose will be administered over 3 hours by IV infusion BID. On Study Days 2 and 3 of study drug, a 600 mg Compound 1 maintenance dose will be administered over 3 hours by IV infusion QD. On Study Day 4 and onward, the Compound 1 maintenance dose will be administered as either 600 mg Compound 1 IV infusion QD over 3 hours or 700 mg PO QD. […] Study drug will be administered for a maximum of 14 days. […] Candida spp. bloodstream infection will be monitored by daily blood culture during Study Drug Treatment until 2 consecutive blood cultures are negative, and at EOST, EOT, and 2 and 4 weeks after EOT, or Early Termination. Simultaneously drawn blood samples will be collected for Candida testing by T2 magnetic resonance (T2MR) assay at Baseline, during Study Drug Treatment, and EOST, or Early Termination. Other cultures, histopathology, and imaging tests to assess the site(s) and extent of candidemia infection at other sites will be conducted as clinically indicated, and the results should be recorded in the electronic Case Report Form (eCRF). The management of intravascular catheters, intravascular devices, and, if applicable, any drains will be recorded, including any associated microbiology results. Patients will be monitored for safety throughout the duration of the study.
On Study Day 1 (or over the first 24 hours if started in the evening), a 1000 mg Compound 1 loading dose will be administered over 3 hours by IV infusion BID. On Study Days 2 and 3 of study drug, a 600 mg Compound 1 maintenance dose will be administered over 3 hours by IV infusion QD. On Study Day 4 and onward, the Compound 1 maintenance dose will be administered as either 600 mg Compound 1 IV infusion QD over 3 hours or 700 mg PO QD. […] Study drug will be administered for a maximum of 14 days (inclusive of the loading dose [Study Day 1]). Tablets are to be administered at the same time each day, whole, and taken by mouth with water within 30 minutes of being removed from the refrigerator. No splitting or crushing of tablets is allowed.
If applicable, an assessment of efficacy will also be made at the end of this antifungal treatment at EOT.
Eradication is defined as a negative blood culture(s) for Candida spp. in the absence of additional antifungal therapy (except for protocol-allowed step-down treatment [e.g., fluconazole]) through EOT

The subject of series [9] is Candida spp. Put plainly: In vitro activity against Candida spp. isolates from the study. Format: cell-based. Conditions: including isolates resistant to other antifungal agents.
From the text: A total of 21 patients were enrolled in the study: 20 were included in the mITT. Median duration of Compound 1 therapy was 11 days (range 5 to 14). All patients received IV Compound 1, 48% (10/21) received PO Compound 1.
A further series in a line: Tissue distribution. Particulars: IV and PO formulations. In kind it is in vivo. An excerpt:
Compound 1 has a novel mechanism of action with broad spectrum activity against Candida spp. (yeast) and Aspergillus spp. (mold), including activity against polyene and azole-resistant strains of Aspergillus spp. […] Compound 1 has the potential to be used as a first-line agent for the treatment of IMIs through a unique mechanism of action. Thus, compound 1 has potential to fill an unmet need for patients with limited or no antifungal treatment options due to documented/anticipated resistance, contraindication, intolerance, or lack of clinical response to standard of care (SOC) antifungal therapy.

The conditions of series [10]: in vivo.
Where [11] appears, read: patients with renal insufficiency.
Setting [12] is: patients with renal insufficiency (n=14).

The structures appear in SMILES notation.

Chain of fungal glycosylphosphatidylinositol (GPI)-anchored wall transfer protein 1 (GWT1) enzyme (P47026 whole entry): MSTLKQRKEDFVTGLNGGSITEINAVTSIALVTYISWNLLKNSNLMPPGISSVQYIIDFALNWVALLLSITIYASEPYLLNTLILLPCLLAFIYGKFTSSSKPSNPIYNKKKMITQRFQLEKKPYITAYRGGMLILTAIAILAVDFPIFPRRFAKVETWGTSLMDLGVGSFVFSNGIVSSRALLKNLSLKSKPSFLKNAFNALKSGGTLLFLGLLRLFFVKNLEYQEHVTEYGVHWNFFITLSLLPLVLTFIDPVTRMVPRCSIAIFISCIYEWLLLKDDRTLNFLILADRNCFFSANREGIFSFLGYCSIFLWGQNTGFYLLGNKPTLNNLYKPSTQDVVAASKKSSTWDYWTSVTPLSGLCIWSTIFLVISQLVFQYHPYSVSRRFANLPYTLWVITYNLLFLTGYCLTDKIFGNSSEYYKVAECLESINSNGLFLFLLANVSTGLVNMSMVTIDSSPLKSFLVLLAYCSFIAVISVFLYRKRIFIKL

On to `Nc1ncccc1-c1cc(Cc2ccc(COc3ccccn3)cc2)no1` [Compound 1A], for which the “inhibition of fungal GWT1 enzyme” value in series [1] is listed as “inhibits”. The “inhibition of PIGW protein” value in series [2] is reported as “does not inhibit”. Also, the “in vitro antifungal activity” value in series [3] is “broad in vitro antifungal activity”. Moreover, the “antifungal activity against clinical isolates” value in series [4] is on record as “demonstrated antifungal activity”. In addition, in series [5], the “pulmonary fungal colony counts” value was “reduced pulmonary fungal colony counts” and the survival rates result is recorded as “statistically significantly improved survival rates”.
As for `Nc1c(-c2cc(Cc3ccc(COc4ccccn4)cc3)no2)ccc[n+]1COP(=O)([O-])O` [Compound 1], in series [5], the “pulmonary fungal colony counts” value is given as “reduced pulmonary fungal colony counts” and the survival rates result is on record as “statistically significantly improved survival rates”. In [6], the fungal burden entry is reported as “reduced fungal burden” and the survival rates entry is “statistically significantly improved survival rates”. The DLTs result in series [7] (2 Phase 1 studies, healthy volunteers) is recorded as “No DLTs were observed”. Further, in series [7] (2 Phase 1 studies, healthy volunteers, IV and PO formulations), the safety and tolerability entry is “safe and well tolerated”. In addition, the safety and tolerability result in series [7] (FIH Phase 1: 1000 mg IV 2-hour infusion BID Day 1, then 600 mg IV 1-hour infusion QD Days 2 through 7) was “safe and well tolerated”. In series [7] (second Phase 1 study: 1000 mg PO QD Days 1 through 14), the safety and tolerability result is “safe and well tolerated”. Besides, the “DRC-assessed success rate at EOST” value in the series on Candida spp. [8] (mITT (16/20)) is listed as 80%. Moreover, in the series with Candida spp. [8] (mITT (17/20)), the “Survival at day 30” value was 85%. Besides, the tolerability result with Candida spp. [8] (patients with candidemia, up to 14 days) was “well-tolerated with no treatment-related serious adverse events or discontinuations”. Besides, in the series on Candida spp. [8] (setting [11]), the “effect of renal impairment on exposure” value was “did not increase exposure” and the treatment-related adverse events entry is recorded as “no treatment-related adverse events”. Further, the “Treatment success rate at EOST” value in the series on Candida spp. [8] (patients with renal insufficiency (12/14)) amounted to 86%. In the series with Candida spp. [8] (setting [12]), the “worsening of renal function at EOST” value is given as “None” and the “worsening of renal function during the follow-up period” value was 4 patients. For the same compound, the “in vitro activity against Candida spp. from the study” value with Candida spp. [9] was “potent in vitro activity”. In “Tissue distribution”, the tissue distribution result is “wide-tissue distribution, including the eye and central nervous system”. The “conversion of prodrug to compound 1A” value in [10] was “rapidly converted in vivo”.
